US5889048A, “Methods and compositions for treating defective cell functions” (priority 1994, dated 1999)

Test system: L-41 cell line
Experiment: cytostatic activity on reinoculated tumor culture of L-41 cell line (protein content, % cell growth inhibition)
Assay type: cell-based
Procedure: The […] activity of a pharmaceutical formulation of the invention was tested with using reinoculated tumor cell cultures.
In the studies a reinoculated leukocyte culture of L-41 strain was used.
The cell culture was incubated by the conventional method. The inoculate density was 1-10^5 cells in 1 ml of nutrient medium. […] On day 2 from the start of the study, a biological activity of the proposed formulation was estimated using 4-point scale. The assays for protein in cultures were performed by the Louri method modified by the Oyama and Eagle.
The cytostatic activity of the proposed formulation was evaluated as the % inhibition of cell culture growth by the suppression of protein production.
According to the existing standard techniques for screening the antitumor preparations, a pharmaceutical formulation is recognized to be efficient when its ED50 is less or equal to 100 μg/ml.
Comparison of biologic activity of the proposed pharmaceutical
reinoculated tumor culture of L-41 cell line

[1] = mercury dichloride alone 1.0 μg/ml
[2] = mercury dichloride alone 3.3 μg/ml
[3] = mercury dichloride alone 5.0 μg/ml
[4] = mercury dichloride alone 8.0 μg/ml

## [Cl][Hg][Cl] [Mercury dichloride, mercury dichloride]
L-41 culture, Table 1 data
  ED50: about 8 μg/ml
[1]
  % of cell growth inhibition: 1.2%
  Protein content: 390.3 ± 2.6 µg/mL
[2]
  % of cell growth inhibition: 5.1%
  Protein content: 279.0 ± 27.3 µg/mL
[3]
  % of cell growth inhibition: 12.9%
  Protein content: 256.0 ± 5.2 µg/mL
[4]
  % of cell growth inhibition: 47.6%
  Protein content: 154.0 ± 5.0 µg/mL
Preliminary experiment
  ED50 (preliminary experiment): < 10 µg/mL
